Test results reported in patent US12251383B2, “Methods and compositions for KRAS inhibitors” (The Board of Regents of the University of Texas System, priority 2019, dated 2025).
“Also recorded” adds a separate entry of the source.

Key:
[1] = target: T1, KRAS^G12D-Raf^RBD interaction (Homo sapiens, UniProt P01116, G12D); experiment: Pull-down of GFP-KRAS G12D by GST-Raf RBD from cell lysates; type: binding
T1 construct: expressed in transfected cells; host or cells: BHK cells expressing GFP-RAS (lysate); GST-Raf RBD made in E. coli BL21 from a GEX plasmid
Description: (§1) [formula] where P1 is polarization of free KRAS, P2 is polarization of Raf-bound KRAS, c is the total concentration of KRAS, and x the total concentration of Raf^RBD. (FIG. 2B) Amount of GFP-KRAS^G12D pulled down by GST-Raf^RBD after treatment of cell lysates with compound at the concentrations indicated (representative Westerns are shown at the top). The RBD sequence length was 1-149 and 51-131 in the fluorescence polarization and pull-down assays, respectively. (FIG. 2C) GFP fluorescence lifetime from FLIM-FRET using cells expressing GFP-KRAS^G12D alone or with RFP-Raf, with or without treatment by 1 μM compound 11. Data are shown as mean±S.E; significance estimated by one-way analysis of variance.
Pull-down. GFP-RAS with GST-tagged RAS binding domain (RBD) of cRaf^A85K (hereafter GST-Raf^RBD) pulled down to monitor RAS-Raf interaction. To prepare GST-Raf^RBD bound to agarose beads, bacteria (BL21) transfected with a previously cloned GEX plasmid were grown in selection media to OD levels of 0.5-1.0 before protein expression was initiated with IPTG (1:1000). After 4 h, the sample was centrifuged at 6000 rpm for 5 min at 4° C., the pellet was re-suspended with PBS containing 5 mM EGTA, 1% Triton X, PIC 1:50 and PMSF 1:100, and cells were lysed with cycles of freezing and thawing. The lysate was sonicated to breakup DNA, and pelleted. […]

GDP-bound KRAS^G12D = GDP-bound KRAS^G12D (Homo sapiens, UniProt P01116, G12D); experiment: MST binding, GDP-bound KRAS G12D; conditions: GDP state
Description: (§2) FIGS. 1A-1D show representative data for the predicted binding mode and measured affinity of disclosed compound 11 to KRAS. (FIG. 1A) Structure of the catalytic domain of KRAS used for the virtual screening. Lobe1 (residues 1-86) and lobe2 (residues 87-166) are highlighted in different colors, as well as switches 1 (residues 30-40) and 2 (residues 60-75). The location of the target allosteric pocket p1 is indicated. (FIG. 1B) Chemical structure of compound 11. (FIG. 1C) Predicted binding pose of compound 11, with the key residues that make polar or vdW contacts with the ligand labeled. (FIG. 1D) Microscale thermophoresis (MST) experiments indicating direct binding of compound 11 to KRAS, along with dissociation constants (KD) derived from the curves. Changes in fluorescence upon titration of […] KRAS with increasing concentration of compound are shown: KRAS^WT (red), KRAS^G12C (green), KRAS^G12D (purple) and KRAS^Q61M (blue), each bound to the non-hydrolyzable GTP analogue, guanylyl imidodiphosphate (GNP). The same experiments indicated no binding to GDP-bound KRAS^G12D and KRAS^WT as well as Rap1B, which was used as control. […]

KRAS-Raf^RBD interaction = KRAS-Raf^RBD interaction (Homo sapiens, UniProt P01116); experiment: Fluorescence polarization of BGTP-γ-S KRAS with GST-Raf RBD; type: binding
Description: FIGS. 2A-2C show representative data pertaining to the disruption of KRAS-Raf interaction by disclosed compound 11. (FIG. 2A) Fluorescence polarization of ^BGTP-γ-SKRAS (0.5 μM) as a function of a varying concentration of GST-Raf^RBD in the absence (red) and presence (blue) of 1 μM compound 11. Shown above the curves is the KD for KRAS-Raf^RBD binding obtained by fitting the data to
as §1
Fluorescence polarization. Fluorescence polarization assay was conducted following previous reports (48, 49). KRAS was pre-loaded with the non-hydrolyzable fluorescent GTP analog BODIPY-GTP-γ-S (BGTP-γ-S; Life Technologies) using buffer-exchange in NAP-5 (GE Life Sciences) as described in the previous section. Then 0.5 μM (50 μL) of ^BGTP-γ-SKRAS was incubated with an equal volume but varying concentrations (0 to 2.5 μM) of GST-Raf^RBD (Raf RBD residues 1-149; Life Technologies) for 30 min in the dark. To determine the effect of ligand on RAS-Raf binding, KRAS was first incubated with a fixed concentration of the ligand for 30 min and then with GST-Raf^RBD. Fluorescence polarization was measured using PolarStar Optima plate reader (excitation: 485 nm, emission: 520 nm) at room temperature. GST-tag was used to increase the weight of Raf^RBD for a greater polarization. The dissociation constant for KRAS-Raf binding was determined using a quadratic ligand binding equation (48).

GDP-bound KRAS^WT = GDP-bound KRAS^WT (Homo sapiens, UniProt P01116); experiment: MST binding, GDP-bound KRAS WT; conditions: GDP state
Description: as §2

Row | SMILES | decrease in GFP-KRAS^G12D levels pulled down ([1]; at 1 μM) [%] | binding (in words) (GDP-bound KRAS^G12D) | reduction of polarization (RAS-Raf interaction) (KRAS-Raf^RBD interaction; 1 μM compound, at 2 μM GST-Raf^RBD) [%] | reduction of affinity of KRAS to Raf^RBD (KRAS-Raf^RBD interaction; 1 μM compound, from KD of polarization curves) [fold] | binding (in words) (GDP-bound KRAS^WT) | effect on KRAS^G12D-Raf^RBD interaction (pull-down) ([1]; 10 μM) | effect on interaction of KRAS with GST-Raf^RBD (KRAS-Raf^RBD interaction; 20 μM compound)
1 | Cc1nn2c(N3CCN(CCO)CC3)cc(-c3ccccc3)nc2c1-c1ccccc1 [Compound 11, 2-[4-(8-methyl-3,9-diphenyl-2,6,7-triazabicyclo[4.3.0]nona-2,4,7,9-tetraen-5-yl)piperazin-1-yl]ethanol] | > 50 | no binding | > 80 | ~13 | no binding; also recorded: does not bind | – | –
2 | Cc1cc(N2CCN(CCO)CC2)n2nc(C)c(-c3ccccc3)c2n1 [Compound 13] | – | does not bind | – | – | does not bind | disrupts | as effectively as the parent compound
